Patent US11564911B2, “Small molecule dual-inhibitors of TRPV4 and TRPA1 for sanitizing and anesthetizing” (Duke University, priority 2016, dated 2023)
Values joined by “and” are separate entries in the source; they are usually repeats but may differ in a detail not shown here. Identical values can stand only once.

Assays:
[1] = molecular target: T1, TRPA1 (mouse) (Mus musculus, UniProt Q8BLA8); experiment: Ca++ imaging in N2a cells with directed expression of TRPA1, mustard oil activation; assay type: cell-based; conditions: mouse TRPA1, 100 μM mustard oil, read-out: IC50, inhibition of TRPA1
T1 construct: expressed in transfected cells; host or cells: N2a cells, eGFP co-transfected
T1 sequence (Q8BLA8 whole entry): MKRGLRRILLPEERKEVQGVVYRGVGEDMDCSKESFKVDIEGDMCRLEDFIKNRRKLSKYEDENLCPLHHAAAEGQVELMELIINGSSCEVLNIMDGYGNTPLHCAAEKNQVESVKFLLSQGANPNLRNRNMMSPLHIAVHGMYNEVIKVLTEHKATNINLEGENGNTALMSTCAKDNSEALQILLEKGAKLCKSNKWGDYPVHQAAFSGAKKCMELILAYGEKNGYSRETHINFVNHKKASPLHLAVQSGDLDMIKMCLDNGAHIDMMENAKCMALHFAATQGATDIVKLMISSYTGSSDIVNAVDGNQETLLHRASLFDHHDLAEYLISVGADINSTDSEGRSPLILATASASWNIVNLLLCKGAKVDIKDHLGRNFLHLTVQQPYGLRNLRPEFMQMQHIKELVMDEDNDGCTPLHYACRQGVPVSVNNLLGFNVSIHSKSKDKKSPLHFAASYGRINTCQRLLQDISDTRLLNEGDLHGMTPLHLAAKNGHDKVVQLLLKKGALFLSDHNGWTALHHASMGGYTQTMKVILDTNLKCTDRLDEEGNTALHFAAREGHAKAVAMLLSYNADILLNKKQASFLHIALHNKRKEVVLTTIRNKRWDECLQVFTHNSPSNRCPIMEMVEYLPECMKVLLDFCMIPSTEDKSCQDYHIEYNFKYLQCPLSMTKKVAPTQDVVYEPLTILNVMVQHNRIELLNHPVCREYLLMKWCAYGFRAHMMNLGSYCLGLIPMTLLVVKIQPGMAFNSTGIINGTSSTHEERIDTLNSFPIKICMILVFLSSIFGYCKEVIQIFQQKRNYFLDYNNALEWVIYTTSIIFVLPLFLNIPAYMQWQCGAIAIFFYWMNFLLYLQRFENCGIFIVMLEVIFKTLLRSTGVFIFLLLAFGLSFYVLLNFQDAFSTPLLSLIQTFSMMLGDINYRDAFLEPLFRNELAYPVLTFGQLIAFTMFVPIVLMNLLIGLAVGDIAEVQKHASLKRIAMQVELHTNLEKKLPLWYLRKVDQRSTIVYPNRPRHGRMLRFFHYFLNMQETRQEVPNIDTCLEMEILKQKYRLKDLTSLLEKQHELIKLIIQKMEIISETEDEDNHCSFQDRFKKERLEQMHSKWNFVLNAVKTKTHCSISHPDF
Description: (§1) Mean±SEM is shown, ≥100 cells per condition. […] Plot generated from averaged peak ΔCa++ concentration of […] per data-point.

[2] = molecular target: T2, TRPV4 (rat) (Rattus norvegicus, UniProt Q9ERZ8); experiment: Ca++ imaging in N2a cells with directed expression of TRPV4, activation with GSK101; assay type: cell-based; conditions: for IC50: N2a cells, rat TRPV4, 5 nM GSK101, averaged peak ΔCa++, read-out: IC50, inhibition of TRPV4-mediated Ca++ influx; for inhibition of TRPV4-mediated Ca++ influx, first round screening: inhibitor 5 μM, 5 nM GSK101
T2 construct: expressed in transfected cells; host or cells: N2a (mouse neuroblastoma) cells
T2 sequence (Q9ERZ8 whole entry): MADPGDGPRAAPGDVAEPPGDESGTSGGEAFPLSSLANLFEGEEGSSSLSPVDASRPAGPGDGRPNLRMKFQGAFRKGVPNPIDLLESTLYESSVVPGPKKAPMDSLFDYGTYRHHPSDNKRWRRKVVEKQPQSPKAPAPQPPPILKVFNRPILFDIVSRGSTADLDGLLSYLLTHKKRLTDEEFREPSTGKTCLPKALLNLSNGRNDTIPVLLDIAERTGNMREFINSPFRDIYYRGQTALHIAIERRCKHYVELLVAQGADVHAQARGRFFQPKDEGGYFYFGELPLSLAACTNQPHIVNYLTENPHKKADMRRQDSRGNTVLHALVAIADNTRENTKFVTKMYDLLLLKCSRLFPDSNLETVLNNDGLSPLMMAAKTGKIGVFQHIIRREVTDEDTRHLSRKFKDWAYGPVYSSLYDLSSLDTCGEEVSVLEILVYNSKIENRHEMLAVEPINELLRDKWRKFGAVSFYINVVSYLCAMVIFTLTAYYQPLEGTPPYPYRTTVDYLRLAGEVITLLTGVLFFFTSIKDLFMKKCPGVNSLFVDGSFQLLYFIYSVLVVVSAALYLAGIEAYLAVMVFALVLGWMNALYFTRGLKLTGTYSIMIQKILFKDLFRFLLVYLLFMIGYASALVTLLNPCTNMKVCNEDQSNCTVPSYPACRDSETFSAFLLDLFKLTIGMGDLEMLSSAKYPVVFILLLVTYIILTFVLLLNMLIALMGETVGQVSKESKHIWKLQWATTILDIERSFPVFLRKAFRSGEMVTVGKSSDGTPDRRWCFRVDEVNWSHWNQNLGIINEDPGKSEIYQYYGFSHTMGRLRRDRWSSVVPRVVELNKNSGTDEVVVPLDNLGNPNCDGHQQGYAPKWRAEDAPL
Description: FIGS. 26A-26B: Assessment of compounds in N2a cells with directed expression of TRPV4. […] The number on each bar corresponds to average peak ΔCa++ concentrations in ≈100 cells. […] Plot generated from averaged peak ΔCa++ concentration of 75 cells per data-point.

[3] = molecular target: T3, TRPV3 (Mus musculus, UniProt Q8K424); experiment: Ca++ imaging in N2a cells over-expressing TRPV3; assay type: cell-based; conditions: 5 μM, mouse isoform in N2a cells
T3 construct: expressed in transfected cells; host or cells: N2a cells, eGFP co-transfected
Description: as §1

[4] = molecular target: T4, human TRPV2 (Homo sapiens, UniProt Q9Y5S1); experiment: Ca2+ signal in N2a cells transfected with human TRPV2 (hypotonicity); assay type: cell-based; conditions: hypotonicity 260 mosmol/L
T4 construct: expressed in transfected cells; host or cells: N2a cells
T4 sequence (Q9Y5S1 whole entry): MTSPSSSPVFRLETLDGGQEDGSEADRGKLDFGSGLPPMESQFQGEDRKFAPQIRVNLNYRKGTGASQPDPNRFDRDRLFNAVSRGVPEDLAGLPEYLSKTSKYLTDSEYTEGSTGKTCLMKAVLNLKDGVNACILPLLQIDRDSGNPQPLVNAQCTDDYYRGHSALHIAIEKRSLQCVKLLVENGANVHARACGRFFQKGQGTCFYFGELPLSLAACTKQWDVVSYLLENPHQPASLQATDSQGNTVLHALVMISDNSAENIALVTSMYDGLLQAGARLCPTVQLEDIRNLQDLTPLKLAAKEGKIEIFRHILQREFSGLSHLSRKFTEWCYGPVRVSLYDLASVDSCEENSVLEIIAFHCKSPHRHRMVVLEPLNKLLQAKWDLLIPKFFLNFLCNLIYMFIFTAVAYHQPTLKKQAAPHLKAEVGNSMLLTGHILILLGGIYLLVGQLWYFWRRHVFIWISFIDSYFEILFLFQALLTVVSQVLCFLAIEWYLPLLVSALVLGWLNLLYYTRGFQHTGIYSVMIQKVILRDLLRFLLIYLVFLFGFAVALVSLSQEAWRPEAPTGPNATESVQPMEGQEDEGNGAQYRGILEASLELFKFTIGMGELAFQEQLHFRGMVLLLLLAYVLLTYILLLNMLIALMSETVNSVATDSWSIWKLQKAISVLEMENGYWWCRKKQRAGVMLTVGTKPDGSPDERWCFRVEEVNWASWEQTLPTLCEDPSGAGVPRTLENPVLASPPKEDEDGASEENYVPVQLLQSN
Experimental: Compounds were tested for their effect on TRPV1, TRPV2, and TRPV3. Methods were similar to those described in Example 15. Briefly, N2a cells were transfected with human TRPV1, TRPV2, or TRPV3. eGFP-transfection was used as control. For specific stimulation of TRPV1, 5 μM capsaicin was used. For stimulation of TRPV2, hypotonicity (260 mosmol/L) was used, based on previous reports of TRPV2 being osmotically responsive. N2a cells were not responsive to hypotonicity, and neither were control-transfected cells. For TRPV3-expressing cells, camphor (20% of a commercially available stock solution) was used. […] Stimulation and control protocols were applied as for TRPA1-expressing N2a cells as detailed above in Example 15.

[5] = Assessment of hepatic, renal and cardiac function in treated mice; assay type: in vivo, mouse; conditions: 10 mg/kg i.p., vs vehicle; for heart rate (EKG): over 1 h, at the 6 h time-point
Experimental: Mice were treated i.p. with compounds 16-8 and 16-19 (10 mg/kg). Hepatic and renal integrity were analyzed by alanine amino-transferase- and creatinine assays (Sigma), both relying on measurement of absorbance at λ=570 nm in 96-well micro-titerplates. 8 technical replicates per animal were performed.
For heart rate assessment in mice treated with 16-8 and 16-19, animals were fitted with two electrodes, one to the ear, via clip, one to the rib-cage, using firm adhesive. Heart rate was monitored and analyzed using axoscope and clampfit 9.2 software (Molecular Devices)

[6] = molecular target: TRPV4 (Homo sapiens, UniProt Q9HBA0); experiment: TRPV4-mediated calcium influx in N2a cells with targeted expression of human TRPV4; assay type: cell-based; design: expressed in transfected cells; host or cells: N2a cells; conditions: 2.5 μM inhibitor, pre-incubation 10 min, 10 nM GSK101
TRPV4, sequence (Q9HBA0 whole entry): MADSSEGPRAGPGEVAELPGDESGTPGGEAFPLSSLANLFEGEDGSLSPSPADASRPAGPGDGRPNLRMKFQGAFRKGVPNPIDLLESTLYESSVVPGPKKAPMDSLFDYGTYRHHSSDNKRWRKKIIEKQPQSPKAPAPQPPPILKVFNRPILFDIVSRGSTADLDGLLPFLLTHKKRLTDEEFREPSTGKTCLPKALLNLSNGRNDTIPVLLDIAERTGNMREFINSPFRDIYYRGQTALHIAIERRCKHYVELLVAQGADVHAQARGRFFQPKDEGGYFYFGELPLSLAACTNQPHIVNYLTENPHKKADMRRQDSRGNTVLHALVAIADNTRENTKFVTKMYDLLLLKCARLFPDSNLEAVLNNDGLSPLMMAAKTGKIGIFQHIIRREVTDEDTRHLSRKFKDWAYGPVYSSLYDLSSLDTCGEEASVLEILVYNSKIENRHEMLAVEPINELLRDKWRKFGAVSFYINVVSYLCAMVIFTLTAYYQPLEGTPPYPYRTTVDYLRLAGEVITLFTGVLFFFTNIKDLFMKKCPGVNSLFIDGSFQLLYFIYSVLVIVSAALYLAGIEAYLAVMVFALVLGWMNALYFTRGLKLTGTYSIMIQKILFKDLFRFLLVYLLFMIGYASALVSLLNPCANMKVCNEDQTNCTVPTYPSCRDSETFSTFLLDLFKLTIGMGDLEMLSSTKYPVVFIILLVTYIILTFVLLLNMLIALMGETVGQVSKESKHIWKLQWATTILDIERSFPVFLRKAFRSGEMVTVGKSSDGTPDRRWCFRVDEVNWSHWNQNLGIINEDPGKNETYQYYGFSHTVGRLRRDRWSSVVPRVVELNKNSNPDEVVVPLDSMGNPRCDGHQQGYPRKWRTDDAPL

[7] = molecular target: T5, human TRPA1 (Homo sapiens, UniProt O75762); experiment: Ca2+ transient in N2a cells transfected with human TRPA1, AITC activation; assay type: cell-based; conditions: GSK205: doses below or equaling 25 μM
T5 construct: expressed in transfected cells; host or cells: N2a cells, co-transfected with eGFP plasmid
T5 sequence (O75762 whole entry): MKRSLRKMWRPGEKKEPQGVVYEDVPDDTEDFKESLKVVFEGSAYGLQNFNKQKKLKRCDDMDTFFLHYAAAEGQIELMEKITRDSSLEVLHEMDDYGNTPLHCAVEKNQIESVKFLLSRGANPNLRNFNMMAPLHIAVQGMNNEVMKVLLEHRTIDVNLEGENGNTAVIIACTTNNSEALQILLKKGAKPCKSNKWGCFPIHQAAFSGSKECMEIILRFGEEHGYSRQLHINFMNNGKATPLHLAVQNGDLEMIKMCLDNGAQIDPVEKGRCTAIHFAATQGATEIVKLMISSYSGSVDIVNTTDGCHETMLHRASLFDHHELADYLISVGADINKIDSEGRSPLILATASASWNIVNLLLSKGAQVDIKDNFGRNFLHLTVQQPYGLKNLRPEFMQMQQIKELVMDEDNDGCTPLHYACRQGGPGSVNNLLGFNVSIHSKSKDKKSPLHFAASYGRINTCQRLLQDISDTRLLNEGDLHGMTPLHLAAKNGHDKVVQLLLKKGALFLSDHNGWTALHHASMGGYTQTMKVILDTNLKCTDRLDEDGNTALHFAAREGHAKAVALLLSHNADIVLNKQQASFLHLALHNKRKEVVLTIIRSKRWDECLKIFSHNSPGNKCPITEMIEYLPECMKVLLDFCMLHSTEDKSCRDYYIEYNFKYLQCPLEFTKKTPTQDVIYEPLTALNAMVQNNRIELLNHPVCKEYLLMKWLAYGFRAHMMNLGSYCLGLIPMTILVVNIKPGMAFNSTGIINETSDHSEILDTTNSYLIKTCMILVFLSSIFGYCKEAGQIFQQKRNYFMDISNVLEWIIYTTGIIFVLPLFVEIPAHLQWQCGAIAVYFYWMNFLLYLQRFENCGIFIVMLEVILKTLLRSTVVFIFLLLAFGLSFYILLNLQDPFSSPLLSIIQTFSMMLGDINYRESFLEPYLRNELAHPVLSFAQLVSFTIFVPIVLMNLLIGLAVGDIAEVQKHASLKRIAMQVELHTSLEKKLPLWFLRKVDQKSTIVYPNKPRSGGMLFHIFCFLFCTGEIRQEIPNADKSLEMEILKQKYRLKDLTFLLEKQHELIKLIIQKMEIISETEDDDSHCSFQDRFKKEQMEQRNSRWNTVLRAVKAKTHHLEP
Experimental: Compounds were tested for their effect on TRPA1. N2a permanent cells were transfected with human TRPA1 cDNA, using a pcDNA3.1 expression plasmid. They were co-transfected with eGFP-expressing plasmid, or, for control, with eGFP plasmid only.
Cells were then pre-exposed to 5 μM of compounds 16-8 and 16-19 for 10 min.

[8] = test system: BL6 mice, whisker-pad injection of formalin; experiment: Formalin-evoked nocifensive behavior, compound pre-injected into the whiskerpad; assay type: in vivo, mouse; conditions: 0.5 mM/10 μL pre-injected into whiskerpad 15 min before formalin
Experimental: Compounds were tested for their effect in reducing pain using an in vivo pain model in mice. For mouse formalin-evoked irritant behavior measurements, mice were well-fed, well-rested, and tested at the same time of day, at the same time-point of their circadian rhythm. They were allowed to acclimate to a plexiglas chamber for at least 30 min before testing, and received 10 μL subcutaneous injection of 4% of formalin (diluted from an aqueous solution of commercial 37% formaldehyde with normal saline (NS)) through a 30-gauge needle into the right whiskerpad, as further detailed in Luccarini et al. (J. Pain, 2006, 7, 908-914). Normal saline was used as control injection. After injection, mice were immediately placed back into the chamber and the rubbing behavior was recorded by a private consumer-type video-camera for a 45 min observation period. The recording time was divided into 9 blocks of 5 min, and a nociceptive score was determined per block by measuring the time that the animals spent rubbing the injected area predominantly with the ipsilateral fore-paw and rarely with hind-paw. This rubbing behavior with fore-paw is evoked by pain, which is distinct from itch behavior. Behavioral analysis was conducted by observers blinded to treatment.
To investigate the effects of the specific compounds GSK205, 16-8, and 16-19 on formalin-induced nociceptive behavior, mice received a single subcutaneous injection of the compounds into the whiskerpad (10 μL, dissolved in 4% DMSO) 15 min before formalin injection. Control animals received the same volume of NS, 4% DMSO.

Compound | IC50 [1] | IC50 [2] | inhibition of TRPV4-mediated Ca++ influx, first round screening [2] | inhibition of TRPV3 [3] | effect on Ca2+ transience, TRPV2 [4] | heart rate (EKG) [5] | alanine-amino-transferase (ALT) [5] | serum creatinin [5] | inhibition of TRPV4-mediated calcium influx (peak calcium concentration) [6] | inhibitory activity against human TRPA1 [7] | nocifensive behavior, in particular second phase [8] | increased potency versus parental compound GSK205 ([2]; from IC50 values, rat TRPV4 in N2a cells) [fold]
CN(CCc1ccc(Nc2nc(-c3ccccc3)cs2)cc1)Cc1ccccc1 [Compound 16-8] | 0.41 µM and 0.43 µM | 0.45 µM | virtually eliminated Ca++ influx | did not inhibit | not affected | did not detect differences and changes in heart rate | not significantly elevated | not significantly elevated | most potent | showed inhibitory activity | significant attenuation | –
CCN(CCc1ccc(Nc2nc(-c3ccccc3)cs2)cc1)Cc1ccccc1 [Compound 16-19] | 0.43 µM and 0.41 µM | 0.59 µM and 0.81 µM | virtually eliminated Ca++ influx | did not inhibit | not affected | did not detect differences and changes in heart rate | not significantly elevated | not significantly elevated | did not show enhanced inhibition over 16-8 | showed inhibitory activity | significant attenuation | ~8
CN(CCc1ccc(Nc2nc(-c3cccnc3)cs2)cc1)Cc1ccccc1 [GSK205] | 5.56 ± 0.4 µM | 4.19 µM | – | – | – | – | – | – | very low potency | did not inhibit TRPA1 activity | lack of effect | –
